#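 Dose response: 5 concentrations. Exposure: 48 h. Format: 96-well plates. Endpoint: linear interpolation; highest concentration if not reached. TGI denotes the concentration required for complete inhibition of growth.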
# What was measured:
# Assay in all cases: inhibition of tumour cell growth, NCI panel, 48 h
# SK-MEL-28 melanoma = test system: SK-MEL-28 melanoma
# LOX IMVI melanoma = test system: LOX IMVI melanoma
# HL-60(TB) leukemia = test system: HL-60(TB) leukemia
# BT-549 breast = test system: BT-549 breast
# HCT-116 colon = test system: HCT-116 colon
# IGROV1 ovarian = test system: IGROV1 ovarian
# SN12C renal = test system: SN12C renal
# SNB-19 CNS = test system: SNB-19 CNS
# NCI-H522 lung = test system: NCI-H522 lung
# HCT-15 colon = test system: HCT-15 colon
# OVCAR-5 ovarian = test system: OVCAR-5 ovarian
# SF-295 CNS = test system: SF-295 CNS
# MDA-MB-231 breast = test system: MDA-MB-231 breast
# SK-MEL-2 melanoma = test system: SK-MEL-2 melanoma
# DU-145 prostate = test system: DU-145 prostate
# SW-620 colon = test system: SW-620 colon
# TK-10 renal = test system: TK-10 renal
# HOP-92 NSCLC = test system: HOP-92 NSCLC
# K-562 leukemia = test system: K-562 leukemia
# CAKI-1 renal = test system: CAKI-1 renal
# MDA-MB-435 = test system: MDA-MB-435
# A498 renal = test system: A498 renal
# CCRF-CEM leukemia = test system: CCRF-CEM leukemia
# 786-0 renal = test system: 786-0 renal
# NCI-H460 lung = test system: NCI-H460 lung
# SF-539 CNS = test system: SF-539 CNS
# NCI-H226 lung = test system: NCI-H226 lung
# T-47D breast = test system: T-47D breast
# SNB-75 CNS = test system: SNB-75 CNS
# SF-268 CNS = test system: SF-268 CNS
# ACHN renal = test system: ACHN renal
# SR leukemia = test system: SR leukemia
# NCI/ADR-RES ovarian = test system: NCI/ADR-RES ovarian
# NCI-H23 lung = test system: NCI-H23 lung
# HS 578T breast = test system: HS 578T breast
# MDA-N = test system: MDA-N
# MCF7 breast = test system: MCF7 breast
# OVCAR-8 ovarian = test system: OVCAR-8 ovarian
# SK-OV-3 ovarian = test system: SK-OV-3 ovarian
# MALME-3M melanoma = test system: MALME-3M melanoma
# U251 CNS = test system: U251 CNS
# HOP-62 NSCLC = test system: HOP-62 NSCLC
# UO-31 renal = test system: UO-31 renal
# COLO 205 colon = test system: COLO 205 colon
# SK-MEL-5 melanoma = test system: SK-MEL-5 melanoma
# RXF 393 renal = test system: RXF 393 renal
# PC-3 prostate = test system: PC-3 prostate
# KM12 colon = test system: KM12 colon
# UACC-257 melanoma = test system: UACC-257 melanoma
# HT29 colon = test system: HT29 colon
# RPMI-8226 leukemia = test system: RPMI-8226 leukemia
# EKVX NSCLC = test system: EKVX NSCLC
# M14 melanoma = test system: M14 melanoma
# UACC-62 melanoma = test system: UACC-62 melanoma
# A549 NSCLC = test system: A549 NSCLC
# OVCAR-3 ovarian = test system: OVCAR-3 ovarian
# OVCAR-4 ovarian = test system: OVCAR-4 ovarian
# HCC-2998 colon = test system: HCC-2998 colon
# MOLT-4 leukemia = test system: MOLT-4 leukemia
smiles,measurement,setting,value
CCOC(=O)/C=C(/C(=O)OCC)n1cc(C)c(=O)n(/C(=C/C(=O)OCC)C(=O)OCC)c1=O,TGI,SK-MEL-28 melanoma,5.04 µM
same,TGI,LOX IMVI melanoma,7.59 µM
same,TGI,HL-60(TB) leukemia,674 nM
same,TGI,BT-549 breast,15.9 µM
same,TGI,HCT-116 colon,4.88 µM
same,TGI,IGROV1 ovarian,17 µM
same,TGI,SN12C renal,8.58 µM
same,TGI,SNB-19 CNS,36.3 µM
same,TGI,NCI-H522 lung,1.88 µM
same,TGI,HCT-15 colon,4.01 µM
same,TGI,OVCAR-5 ovarian,14.3 µM
same,TGI,SF-295 CNS,33.5 µM
same,TGI,MDA-MB-231 breast,9.01 µM
same,TGI,SK-MEL-2 melanoma,33 µM
same,TGI,DU-145 prostate,26.6 µM
same,TGI,SW-620 colon,3.03 µM
same,TGI,TK-10 renal,4.06 µM
same,TGI,HOP-92 NSCLC,2.91 µM
same,TGI,K-562 leukemia,3.81 µM
same,TGI,CAKI-1 renal,2.14 µM
same,TGI,MDA-MB-435,7.76 µM
same,TGI,A498 renal,36.8 µM
same,TGI,CCRF-CEM leukemia,1530 nM
same,TGI,786-0 renal,2.56 µM
same,TGI,NCI-H460 lung,37.1 µM
same,TGI,SF-539 CNS,23.5 µM
same,TGI,NCI-H226 lung,12.6 µM
same,TGI,T-47D breast,7.86 µM
same,TGI,SNB-75 CNS,24 µM
same,TGI,SF-268 CNS,32.8 µM
same,TGI,ACHN renal,4.08 µM
same,TGI,SR leukemia,5.72 µM
same,TGI,NCI/ADR-RES ovarian,26.1 µM
same,TGI,NCI-H23 lung,12.9 µM
same,TGI,HS 578T breast,45.7 µM
same,TGI,MDA-N,13.7 µM
same,TGI,MCF7 breast,5.5 µM
same,TGI,OVCAR-8 ovarian,13 µM
same,TGI,SK-OV-3 ovarian,31.5 µM
same,TGI,MALME-3M melanoma,4.36 µM
same,TGI,U251 CNS,19.3 µM
same,TGI,HOP-62 NSCLC,43.3 µM
same,TGI,UO-31 renal,10.8 µM
same,TGI,COLO 205 colon,2870 nM
same,TGI,SK-MEL-5 melanoma,20.8 µM
same,TGI,RXF 393 renal,3.73 µM
same,TGI,PC-3 prostate,12.3 µM
same,TGI,KM12 colon,30.1 µM
same,TGI,UACC-257 melanoma,10.9 µM
same,TGI,HT29 colon,7.72 µM
same,TGI,RPMI-8226 leukemia,4.52 µM
same,TGI,EKVX NSCLC,13.9 µM
same,TGI,M14 melanoma,6.48 µM
same,TGI,UACC-62 melanoma,19.4 µM
same,TGI,A549 NSCLC,31.8 µM
same,TGI,OVCAR-3 ovarian,7.7 µM
same,TGI,OVCAR-4 ovarian,> 22.3 µM
same,TGI,HCC-2998 colon,22.1 µM
same,TGI,MOLT-4 leukemia,5.78 µM
CCC(=O)/C=C/c1ccccc1,TGI,SK-MEL-28 melanoma,> 100 µM
same,TGI,LOX IMVI melanoma,> 100 µM
same,TGI,HL-60(TB) leukemia,> 100000 nM
same,TGI,BT-549 breast,> 100 µM
same,TGI,HCT-116 colon,> 100 µM
same,TGI,IGROV1 ovarian,> 100 µM
same,TGI,SN12C renal,> 100 µM
same,TGI,SNB-19 CNS,> 100 µM
same,TGI,NCI-H522 lung,> 100 µM
same,TGI,HCT-15 colon,> 100 µM
same,TGI,OVCAR-5 ovarian,> 100 µM
same,TGI,SF-295 CNS,> 100 µM
same,TGI,MDA-MB-231 breast,> 100 µM
same,TGI,SK-MEL-2 melanoma,> 100 µM
same,TGI,DU-145 prostate,> 100 µM
same,TGI,SW-620 colon,> 100 µM
same,TGI,TK-10 renal,> 100 µM
same,TGI,HOP-92 NSCLC,> 100 µM
same,TGI,K-562 leukemia,> 100 µM
same,TGI,CAKI-1 renal,> 100 µM
same,TGI,MDA-MB-435,> 100 µM
same,TGI,A498 renal,> 100 µM
same,TGI,CCRF-CEM leukemia,> 100000 nM
same,TGI,786-0 renal,> 100 µM
same,TGI,NCI-H460 lung,> 100 µM
same,TGI,SF-539 CNS,> 100 µM
same,TGI,NCI-H226 lung,> 100 µM
same,TGI,T-47D breast,> 100 µM
same,TGI,SNB-75 CNS,> 100 µM
same,TGI,SF-268 CNS,> 100 µM
same,TGI,ACHN renal,> 100 µM
same,TGI,SR leukemia,> 100 µM
same,TGI,NCI/ADR-RES ovarian,> 100 µM
same,TGI,NCI-H23 lung,> 100 µM
same,TGI,HS 578T breast,> 100 µM
same,TGI,MDA-N,> 100 µM
same,TGI,MCF7 breast,> 100 µM
same,TGI,OVCAR-8 ovarian,> 100 µM
same,TGI,SK-OV-3 ovarian,> 100 µM
same,TGI,MALME-3M melanoma,> 100 µM
same,TGI,U251 CNS,> 100 µM
same,TGI,HOP-62 NSCLC,> 100 µM
same,TGI,UO-31 renal,> 100 µM
same,TGI,COLO 205 colon,> 100000 nM
same,TGI,SK-MEL-5 melanoma,> 100 µM
same,TGI,RXF 393 renal,> 100 µM
same,TGI,PC-3 prostate,> 100 µM
same,TGI,KM12 colon,42.9 µM
same,TGI,UACC-257 melanoma,> 100 µM
same,TGI,HT29 colon,> 100 µM
same,TGI,RPMI-8226 leukemia,> 100 µM
same,TGI,EKVX NSCLC,> 100 µM
same,TGI,M14 melanoma,> 100 µM
same,TGI,UACC-62 melanoma,> 100 µM
same,TGI,A549 NSCLC,> 100 µM
same,TGI,OVCAR-3 ovarian,> 100 µM
same,TGI,OVCAR-4 ovarian,> 100 µM
same,TGI,HCC-2998 colon,> 100 µM
same,TGI,MOLT-4 leukemia,89.2 µM
CC(=O)O[C@H]1C(=O)[C@@]2(C)[C@H]([C@H](OC(=O)c3ccccc3)[C@]3(O)C[C@H](OC(=O)[C@H](O)[C@@H](NC(=O)c4ccccc4)c4ccccc4C)C(C)=C1C3(C)C)[C@]1(OC(C)=O)CO[C@@H]1C[C@@H]2O,TGI,SK-MEL-28 melanoma,> 15.2 µM
same,TGI,LOX IMVI melanoma,> 25 µM
same,TGI,HL-60(TB) leukemia,228 nM
same,TGI,BT-549 breast,> 11.8 µM
same,TGI,HCT-116 colon,9.15 µM
same,TGI,IGROV1 ovarian,> 25 µM
same,TGI,SN12C renal,> 25 µM
same,TGI,SNB-19 CNS,> 25 µM
same,TGI,NCI-H522 lung,4.29 µM
same,TGI,HCT-15 colon,> 25 µM
same,TGI,OVCAR-5 ovarian,4.74 µM
same,TGI,SF-295 CNS,> 9.21 µM
same,TGI,MDA-MB-231 breast,> 16.1 µM
same,TGI,SK-MEL-2 melanoma,11.5 µM
same,TGI,DU-145 prostate,> 20.6 µM
same,TGI,SW-620 colon,> 25 µM
same,TGI,TK-10 renal,18.9 µM
same,TGI,HOP-92 NSCLC,24.2 µM
same,TGI,K-562 leukemia,5.08 µM
same,TGI,CAKI-1 renal,> 25 µM
same,TGI,MDA-MB-435,0.289 µM
same,TGI,A498 renal,9.4 µM
same,TGI,CCRF-CEM leukemia,2700 nM
same,TGI,786-0 renal,12.8 µM
same,TGI,NCI-H460 lung,> 11.3 µM
same,TGI,SF-539 CNS,1.93 µM
same,TGI,NCI-H226 lung,> 25 µM
same,TGI,T-47D breast,> 25 µM
same,TGI,SNB-75 CNS,10.1 µM
same,TGI,SF-268 CNS,> 25 µM
same,TGI,ACHN renal,> 25 µM
same,TGI,SR leukemia,4.06 µM
same,TGI,NCI/ADR-RES ovarian,> 25 µM
same,TGI,NCI-H23 lung,> 11.6 µM
same,TGI,HS 578T breast,1.73 µM
same,TGI,MDA-N,0.392 µM
same,TGI,MCF7 breast,> 16.1 µM
same,TGI,OVCAR-8 ovarian,12.7 µM
same,TGI,SK-OV-3 ovarian,> 12.7 µM
same,TGI,MALME-3M melanoma,> 24 µM
same,TGI,U251 CNS,6 µM
same,TGI,HOP-62 NSCLC,> 25 µM
same,TGI,UO-31 renal,> 24.2 µM
same,TGI,COLO 205 colon,1790 nM
same,TGI,SK-MEL-5 melanoma,3.05 µM
same,TGI,RXF 393 renal,3.97 µM
same,TGI,PC-3 prostate,> 9.4 µM
same,TGI,KM12 colon,5.75 µM
same,TGI,UACC-257 melanoma,> 11.7 µM
same,TGI,HT29 colon,18.4 µM
same,TGI,RPMI-8226 leukemia,1.03 µM
same,TGI,EKVX NSCLC,> 25 µM
same,TGI,M14 melanoma,3.02 µM
same,TGI,UACC-62 melanoma,> 15.8 µM
same,TGI,A549 NSCLC,> 25 µM
same,TGI,OVCAR-3 ovarian,4.87 µM
same,TGI,OVCAR-4 ovarian,> 23.3 µM
same,TGI,HCC-2998 colon,7.11 µM
same,TGI,MOLT-4 leukemia,5.35 µM

# Reference: PubChem BioAssay (NCI)
